Test results taken from patent publication US20260226065A1, “SUBSTITUTED BENZENE COMPOUND” (DAIICHI SANKYO COMPANY, LIMITED, priority 2023, published 2026).

Legend:
[1] = Pharmacokinetics test in mice (plasma and brain concentration, LC/MS/MS); format: in vivo; conditions: mouse; male BALB/c mice; oral 10 mg/kg; two hours after administration; concentration in brain homogenate standardized with concentration in plasma
Experimental: Two hours after oral administration of the test compound (10 mg/kg) to male BALB/c mice, blood was collected from the posterior vena cava under isoflurane anesthesia, and plasma was obtained by centrifugation. In addition, the brain was collected after euthanasia by exsanguination, and distilled water was added to the obtained brain sample in an amount four times the wet weight of the brain to prepare a 20% homogenate. The compound concentrations in the obtained plasma and brain homogenate were measured by LC/MS/MS. The central transfer parameter Kp, brain was calculated by standardizing the concentration in the brain homogenate with the concentration in plasma. In the table, Ex indicates the example number. […].

NLRP3 inflammasome = target: T1, NLRP3 inflammasome (Homo sapiens, UniProt Q96P20); assay: In vitro IL-1β production test (PMA-differentiated THP-1 cells, Nigericin stimulation, AlphaLISA); format: cell-based; conditions: inhibition of IL-1β production; THP-1 cells differentiated with 200 nM PMA; 0.015 mM Nigericin; 2 hours
T1 construct: endogenous in cells; host or cells: THP-1 (human monocyte-derived), PMA-differentiated, Nigericin-stimulated
T1 sequence (Q96P20 whole entry): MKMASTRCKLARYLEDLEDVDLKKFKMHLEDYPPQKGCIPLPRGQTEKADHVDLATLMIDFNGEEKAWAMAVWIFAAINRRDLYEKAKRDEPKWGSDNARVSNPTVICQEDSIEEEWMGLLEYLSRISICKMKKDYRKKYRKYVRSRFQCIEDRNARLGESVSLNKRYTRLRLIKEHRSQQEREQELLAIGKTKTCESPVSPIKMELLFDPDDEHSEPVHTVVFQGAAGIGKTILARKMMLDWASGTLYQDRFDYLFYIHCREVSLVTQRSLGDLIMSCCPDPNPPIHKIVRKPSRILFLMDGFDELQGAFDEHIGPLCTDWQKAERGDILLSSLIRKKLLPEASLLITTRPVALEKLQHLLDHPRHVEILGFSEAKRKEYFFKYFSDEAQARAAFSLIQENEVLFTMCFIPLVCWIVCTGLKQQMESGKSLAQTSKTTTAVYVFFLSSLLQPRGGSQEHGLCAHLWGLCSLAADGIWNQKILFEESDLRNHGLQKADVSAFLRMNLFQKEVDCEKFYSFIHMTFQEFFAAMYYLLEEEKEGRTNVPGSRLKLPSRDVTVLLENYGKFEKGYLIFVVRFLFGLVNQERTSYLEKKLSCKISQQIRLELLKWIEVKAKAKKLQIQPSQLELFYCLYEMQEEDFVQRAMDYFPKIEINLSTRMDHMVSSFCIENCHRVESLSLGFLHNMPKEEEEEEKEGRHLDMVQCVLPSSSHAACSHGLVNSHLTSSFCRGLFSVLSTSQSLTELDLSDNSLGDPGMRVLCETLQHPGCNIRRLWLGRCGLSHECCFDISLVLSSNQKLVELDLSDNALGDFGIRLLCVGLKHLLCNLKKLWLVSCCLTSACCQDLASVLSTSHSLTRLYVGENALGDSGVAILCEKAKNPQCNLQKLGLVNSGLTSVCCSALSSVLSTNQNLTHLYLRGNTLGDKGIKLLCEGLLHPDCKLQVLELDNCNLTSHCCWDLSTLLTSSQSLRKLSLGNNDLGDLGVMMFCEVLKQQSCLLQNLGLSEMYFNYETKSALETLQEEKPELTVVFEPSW
In short: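 THP-1 cells were differentiated one day with 200 nM PMA, then given serum-free medium with 0.015 mM nigericin plus compound for 2 h. Supernatant IL-1β was measured by AlphaLISA, with nigericin alone as 0% and unstimulated as 100% inhibition. IC50 came from logistic sigmoid fitting.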

| SMILES | Kp at 2 h [1] | IC50 (NLRP3 inflammasome) [µM] |
| --- | --- | --- |
| Cc1cc(C(F)(F)F)cc(O)c1-c1cc2c(C)cn([C@H]3C[C@@](C)(O)C3)c2nn1 [Example 4, 2-{7-[(1s,3s)-3-hydroxy-3-methylcyclobutyl]-5-methyl-7H-pyrrolo[2,3-c]pyridazin-3-yl}-3-methyl-5-(trifluoromethyl)phenol] | 0.65 | 0.0198 |
| COc1cn([C@H]2C[C@@](C)(O)C2)c2nnc(-c3c(C)cc(C(F)(F)F)cc3O)cc12 [Example 10, 2-{7-[(1s,3s)-3-hydroxy-3-methylcyclobutyl]-5-methoxy-7H-pyrrolo[2,3-c]pyridazin-3-yl}-3-methyl-5-(trifluoromethyl)phenol] | 0.7 | 0.0237 |
| Cc1cc(C(F)(F)F)cc(O)c1-c1cc2c3c(n([C@H]4C[C@@](C)(O)C4)c2nn1)CCO3 [Example 83, 2-{8-[(1s,3s)-3-hydroxy-3-methylcyclobutyl]-7,8-dihydro-6H-furo[2′,3′:4,5]pyrrolo[2,3-c]pyridazin-3-yl}-3-methyl-5-(trifluoromethyl)phenol] | – | 0.00916 |
| Cc1cc(C(F)(F)F)cc(O)c1-c1cc2ccn(-c3ncc(F)cn3)c2nn1 [Example 84, 2-[7-(5-fluoropyrimidin-2-yl)-7H-pyrrolo[2,3-c]pyridazin-3-yl]-3-methyl-5-(trifluoromethyl)phenol] | – | 0.0128 |
| Cc1cc(C(F)(F)F)cc(O)c1-c1cc2cc(C)n([C@H]3C[C@@](C)(O)C3)c2nn1 [Example 87, 2-{7-[(1s,3s)-3-hydroxy-3-methylcyclobutyl]-6-methyl-7H-pyrrolo[2,3-c]pyridazin-3-yl}-3-methyl-5-(trifluoromethyl)phenol] | – | 0.0401 |
| Cc1cc(C(F)(F)F)cc(O)c1-c1cc2ccn(C[C@H](C)O)c2nn1 [Example 89, 2-{7-[(28)-2-hydroxypropyl]-7H-pyrrolo[2,3-c]pyridazin-3-yl}-3-methyl-5-(trifluoromethyl)phenol] | – | 0.138 |
| Cc1cc(F)cc(O)c1-c1cc2c(C)cn([C@H]3C[C@@](C)(O)C3)c2nn1 [Example 91, 5-fluoro-2-{7-[(1s,3s)-3-hydroxy-3-methylcyclobutyl]-5-methyl-7H-pyrrolo[2,3-c]pyridazin-3-yl}-3-methylphenol] | – | 0.125 |
| Cc1cc(C(F)F)cc(O)c1-c1cc2c(C)cn([C@H]3C[C@@](C)(O)C3)c2nn1 [Example 92, 5-(difluoromethyl)-2-{7-[(1s,3s)-3-hydroxy-3-methylcyclobutyl]-5-methyl-7H-pyrrolo[2,3-c]pyridazin-3-yl}-3-methylphenol] | – | 0.0592 |

The remaining compounds from weak to strong by IC50 (NLRP3 inflammasome), led by results:

| Kp at 2 h [1] | IC50 (NLRP3 inflammasome) [µM] | SMILES |
| --- | --- | --- |
| – | 0.0565 | Cc1cc(C)c(-c2cc3c(C)cn([C@H]4C[C@@](C)(O)C4)c3nn2)c(O)c1 [Example 90, 2-{7-[(1s,3s)-3-hydroxy-3-methylcyclobutyl]-5-methyl-7H-pyrrolo[2,3-c]pyridazin-3-yl}-3,5-dimethylphenol] |
| 1.1 | 0.0525 | Cc1cc(C(F)(F)F)cc(O)c1-c1cc2ccn([C@H]3C[C@@](C)(O)C3)c2nn1 [Example 3, 2-{7-[(1s,3s)-3-hydroxy-3-methylcyclobutyl]-7H-pyrrolo[2,3-c]pyridazin-3-yl}-3-methyl-5-(trifluoromethyl)phenol] |
| – | 0.0431 | Cc1cc(C(F)(F)F)cc(O)c1-c1cc2ccn(C34CCCC(O)(C3)C4)c2nn1 [Example 88, 5-{3-[2-hydroxy-6-methyl-4-(trifluoromethyl)phenyl]-7H-pyrrolo[2,3-c]pyridazin-7-yl}bicyclo[3.1.1]heptan-1-ol] |
| 1.68 | 0.0313 | Cc1cc(C(F)(F)F)cc(O)c1-c1cc2c(F)cn([C@H]3C[C@@](C)(O)C3)c2nn1 [Example 5, 2-{5-fluoro-7-[(1s,3s)-3-hydroxy-3-methylcyclobutyl]-7H-pyrrolo[2,3-c]pyridazin-3-yl}-3-methyl-5-(trifluoromethyl)phenol] |
| 0.92 | 0.0256 | Cc1cc(Cl)cc(O)c1-c1cc2c(F)cn([C@H]3C[C@@](C)(O)C3)c2nn1 [Example 27, 5-chloro-2-{5-fluoro-7-[(1s,3s)-3-hydroxy-3-methylcyclobutyl]-7H-pyrrolo[2,3-c]pyridazin-3-yl}-3-methylphenol] |
| 0.83 | 0.0198 | Cc1cc(C(F)(F)F)cc(O)c1-c1cc2c(OC(F)F)cn([C@H]3C[C@@](C)(O)C3)c2nn1 [Example 21, 2-{5-(difluoromethoxy)-7-[(1s,3s)-3-hydroxy-3-methylcyclobutyl]-7H-pyrrolo[2,3-c]pyridazin-3-yl}-3-methyl-5-(trifluoromethyl)phenol] |
| – | 0.00953 | Cc1cc(C(F)(F)F)cc(O)c1-c1cc2c3c(n([C@H]4C[C@@](C)(O)C4)c2nn1)COC3 [Example 99, 2-{8-[(1s,3s)-3-hydroxy-3-methylcyclobutyl]-7,8-dihydro-5H-furo[3′,4′:4,5]pyrrolo[2,3-c]pyridazin-3-yl}-3-methyl-5-(trifluoromethyl)phenol] |
